{"source": "patent US20260263638A1", "about": "“COMPOSITIONS AND METHODS TO IMPROVE RNA PROPERTIES USING BASE, PHOSPHODIESTER LINKAGE, SUGAR BACKBONE, AND CAP MODIFICATIONS” (The Broad Institute, Inc., priority 2023, published 2026)", "molecules": {"B1": {"name": "LNAm7G-LNA (22) (ssRNA)", "RNA": "AGAGAAUAAAAA", "modifications": "5' m7G cap with LNA sugar; LNA at position 1"}, "B2": {"name": "m7G-6x2OMe (15) (ssRNA)", "RNA": "AGAGAAUAAAAA", "modifications": "5' m7G cap; 2'-OMe at positions 1-6"}, "B3": {"name": "LNAm7G-2OMex6 (24) (ssRNA)", "RNA": "AGAGAAUAAAAA", "modifications": "5' m7G cap with LNA sugar; 2'-OMe at positions 1-6"}}, "key": {"eIF4E [1]": {"molecular_target": "T1, eIF4E (Homo sapiens, UniProt P06730)", "T1 construct": "His; purchased Cayman Chemical Inc 25150", "test": "eIF4E electrophoretic mobility shift assay (EMSA)", "type": "binding", "details": "AF647-labeled capped oligos, read-out: eIF4E dissociation constant (Kd)", "protocol": "(§1) eIF4E affinity to fluorophore-labeled capped RNA oligonucleotides was quantified through electrophoretic mobility shift assay (EMSA) (FIGS. 14D and 9A-9E).\n(§2) Capped oligonucleotides were labeled on the 3′ end using AF647 labeled cytidine-5′-phosphate-3′-(6-aminohexyl) phosphate [Jena Bioscience, NU-1706-AF647] and T4 RNA ligase ligated AF647-labeled cytidine onto the capped oligos using manufacturer's protocols. Oligos were then incubated in the binding buffer (1 mM DTT, 50 mM KCl, 10 mM Tris-HCl (pH 7.6), Novex Hi-Density TBE Sample Buffer [Invitrogen, LC6678]) with varying eIF4E-His [Cayman Chemical Inc, 25150] concentrations prepared by sequential dilutions from the stock solution. The oligos and […] were incubated at 4° C. for 30 mins and characterized by EMSA with Novex TBE Gels, 4-20% [Invitrogen, EC6225BOX] at 4° C. AF647 labeled oligos were imaged with BioRad ChemiDoc MP Imaging System [12003154] and band intensities were quantified using ImageJ. For Kd calculation, the proportions of bound were plotted against eIF4E concentration using GraphPad Prism (Specific binding with Hill slope)."}, "[2]": {"molecular_target": "T2, human decapping enzyme 2 (hDcp2) (Homo sapiens, UniProt Q8IU60)", "T2 construct": "purchased Enzymax LLC 86", "test": "hDcp2 decapping assay", "type": "biochemical", "details": "23-nt capped oligos; for Susceptibility / resistance to hDcp2 decapping: result in words", "protocol": "Next, the influence of modifications on decapping activity was examined. To this end, 23-nucleotide (23-nt) oligonucleotides with various modification patterns were subjected to decapping reactions and analyzed at different time intervals (FIGS. 14E and 9I).\n500 ng of capped oligos were incubated in 75 μL decapping reaction buffer (10 mM Tris-HCl (pH 7.5), 100 mM NaCl, 2 mM MgCl2, 1 mM DTT, 2 mM MnCl2, 1:25 SUPERaseIn (v/v)) with 300 ng of hDcp2 [Enzymax LLC, 86] at 37° C. At indicated time points, 5 μL of reaction mixture was aliquoted out into 10 μL of denaturing gel-loading buffer [NEB, B0363S, with urea added to a final concentration of 5 M] and cooled to −20° C. until all time points were collected. The fractions were analyzed by PAGE using Novex 15% TBE-Urea gel [Invitrogen, EC6885BOX] by running at 100 V for 2 hours and stained by 1×SYBR Gold [ThermoFisher Scientific, S11494], and visualized using BioRad ChemiDoc MP Imaging System [12003154]. Band intensities were quantified using ImageJ."}, "HeLa cells [3]": {"tested_on": "HeLa cells", "test": "Time-course dual luciferase assay of modified Firefly luciferase mRNA (Renilla control)", "type": "cell-based", "details": "HeLa cells; 8-, 24-, 48-hours post-transfection; benchmark m7G-rG", "protocol": "The modularity of this workflow enabled divergent construction and evaluation of mRNAs featuring four different types of cap and 5′ UTR modifications (FIG. 8A): (1) base identities within the 5′ UTR, including as locations beyond the third base (+3 position), (2) phosphodiester linkages within the 5′ UTR, (3) sugar backbone modifications within the 5′ UTR, and (4) cap modifications. The effects of all of these different types of modifications on protein translation were assayed using Firefly luciferase reporter at 8-, 24-, and 48-hours post-transfection.\nHeLa cells [ATCC, CCL-2] were maintained in DMEM culture media [ThermoFisher Scientific, 119951] containing 10% FBS and 1% penicillin-streptomycin [ThermoFisher Scientific, 15070063] in a 37° C. incubator with 5% CO2 and passaged at a ratio of 1:10 every 3 days. On the day before mRNA transfection, HeLa cells were seeded at 90% confluence in individual wells on 24-well plates. The following day, 50 ng of Renilla luciferase (internal control) mRNA and 50 ng of modified Firefly luciferase mRNA were transfected using Lipofectamine MessengerMAX Transfection Reagent [ThermoFisher Scientific, LMRNA003] per manufacturer's protocols. Additional controls that contain only Renilla luciferase mRNA or lipofection reagent only were included. Three individual transfections were conducted for each condition. 6 hours after transfection, the transfection media was removed, and cells were trypsinized and reseeded to three white clear-bottom 96-well plates [Corning, 3610] in phenol-red-free media. At 8-, 24-, and 48-hours post-transfection, cell culture media was removed and cells were rinsed with DPBS. Cells were lysed and luciferase activity was measured using the Promega Dual Glo Luciferase Assay System [Promega, E2920]. Firefly luminescence/Renilla luminescence for each well was used as mRNA activity readout. In cases where Nluc and Fluc were used, the protocol was conducted similarly using the Nano-Glo Dual-Luciferase Reporter Assay System [Promega, N1610]."}, "HeLa cells [4]": {"tested_on": "HeLa cells", "test": "NLuc bioluminometry of circRNA/QRNA (Fluc transfection control)", "type": "cell-based", "details": "capped oligo:circRNA up to 80:1 molar ratio", "protocol": "Synthetic linear mRNA encoding NanoLuciferase (NLuc) was prepared from DNA template by IVT with 100% m1ψ substitution. The triphosphorylated mRNA after IVT was then treated with Calf Intestinal Alkaline Phosphatase (CIAP) to yield 5′/3′-hydroxyl mRNA. A chemically synthesized oligonucleotide with a branched m7G cap and 5′/3′-phosphates was then ligated to the 5′/3′-hydroxyl mRNA by T4 RNA ligase, which ligates the 5′-phosphate on the oligo and 3′-hydroxyl of the mRNA. The ligation product was then further treated with RtcB ligase, which ligates the 5′-hydroxyl and 3′-phosphate ends to enable intramolecular circularization. […] Using one primer only produced no fragmentation but only linearization, confirming successful circularization. Using double primers produced fragments flanking the branched region, where branched topology was confirmed by gel shift. […] NLuc bioluminometry was measured 8 hrs post transfection and normalized Firefly luciferase as transfection control. Mean±s.e.m., n=3. P values were calculated by ordinary one-way ANOVA (alpha=0.05), with multiple comparisons to circ-NLuc with only 5-octadiynyl deoxyuridine (OU) handle (construct 45). ****P<0.0001, n.s. P>0.05. […] QRNA with m7G (construct 48) was compared. n=3, biological replicates. Mean±sem. P values were calculated by ordinary one-way ANOVA with multiple comparisons against construct 61 without any cotransfected capped oligos (Dunnett's multiple comparison test). […] P values were calculated by unpaired two-sided t-test.\nHeLa cells [ATCC, CCL-2] were maintained in DMEM culture media [ThermoFisher Scientific, 119951] containing 10% FBS and 1% penicillin-streptomycin [ThermoFisher Scientific, 15070063] in a 37° C. incubator with 5% CO2 and passaged at a ratio of 1:10 every 3 days. […] Cells were lysed and luciferase activity was measured using the Promega Dual Glo Luciferase Assay System [Promega, E2920]. Firefly luminescence/Renilla luminescence for each well was used as mRNA activity readout. […]"}, "reticulocytes": {"tested_on": "reticulocytes", "test": "Plasma reticulocyte counting by flow cytometry", "type": "in vivo", "details": "mice", "protocol": "(§3) mRNA diluted in 50 mM citrate buffer (pH 4) and lipid mix (37.5 mM in ethanol) containing 50 mol % SM-102, 10 mol % DSPC, 38.5 mol % Cholesterol, and 1.5 mol % DMG-PEG2000 were assembled into LNP using a NanoAssemblr Spark instrument [Precision Nanosystems]. Upon formulation, mRNA-LNPs were diluted in 12 mL 1×PBS solution and the buffer was exchanged by concentrating with a 30 kDa spin filter [MilliporeSigma, UFC901008] to remove residue ethanol. Concentrations and encapsulation efficiency of mRNA were determined using Quant-it RiboGreen RNA Assay Kit [ThermoFisher, R11490]. 1 μg NanoLuc or hEPO mRNA-LNP in a total volume of 100 μL was injected through retro orbital injection into each mouse. Four mice were used for each condition of each experiment (NanoLuc imaging, hEPO ELISA, and reticulocyte counting). For NanoLuc imaging, PBS injection was used as negative control. For hEPO/reticulocyte experiments, poly(C)-LNP complex was used as negative control.\n10 μL […] sample was added into 1 mL of the Reticulocyte Reagent [BD Bioscience] at the indicated time points and the mixture was incubated at room temperature for 30 minutes with protection from light. The samples were analyzed with Beckman CytoFLEX LX Flow Cytometer with 100,000-event records for each sample. Thiazole orange positive cells are defined as reticulocytes."}, "[5]": {"test": "Quantification of plasma hEPO by ELISA after mRNA-LNP injection", "type": "in vivo", "details": "mice; hEPO mRNA-LNP retro-orbital; 6 hours", "protocol": "All animal procedures followed animal care guidelines approved by the Institutional Animal Care and Use Committee (IACUC) of the Broad Institute of MIT and Harvard under animal protocol #0255-08-19. Animal experiments were conducted in compliance with IACUC policies and NIH guidelines. The BALB/cj (male, 6~8 weeks old) mice used for in vivo NanoLuc assay in this study were purchased from The Jackson Laboratory (JAX). The C57BL/6 mice (female, 7 weeks old), used for hEPO assay in this study were purchased from The Jackson Laboratory (JAX).\nas §3\nAt the indicated time points, approximately 100 μL of blood was collected with EDTA-coated capillary tubes from each mouse and then transferred to an EDTA-coated tube. The collected blood samples were centrifuged at 2000 g for 10 min, followed by transferring the resulting plasma into another tube. The hEPO levels in the plasma samples were measured by Human Erythropoietin (EPO) ELISA kit [LEGEND MAX, 442907]. Final concentrations for hEPO were adjusted based on the volume and dilution fold."}, "eIF4E [6]": {"molecular_target": "eIF4E (UniProt P06730 P06730:1-217)", "sequence (P06730 whole entry, one chain of several)": "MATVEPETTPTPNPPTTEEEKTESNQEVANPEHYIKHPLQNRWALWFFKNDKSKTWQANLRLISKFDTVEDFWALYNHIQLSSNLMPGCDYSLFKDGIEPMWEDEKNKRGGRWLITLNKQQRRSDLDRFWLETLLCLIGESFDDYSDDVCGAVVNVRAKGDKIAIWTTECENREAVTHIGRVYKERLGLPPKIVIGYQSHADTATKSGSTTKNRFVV", "test": "EMSA; 50 mM KCl, 10 mM Tris-HCl pH 7.6, 1 mM DTT, 4 C", "details": "tags: His tag; Cayman Chemical 25150; label: 3' AF647-cytidine (EMSA)", "protocol": "as §1, §2"}}, "note": "Strand notation (5' to 3'): a small letter for the sugar, then the base; units joined by * are phosphorothioate-linked, units joined directly phosphodiester-linked; [ ] holds rarer units or linkages, { } end groups; capitals alone tell only the bases. {m7G} = 7-methylguanosine cap nucleotide; l = locked nucleic acid (LNA); m = 2'-O-methyl; r = 2'-OH (RNA); {P} = phosphate", "data": [{"molecule": "construct 15: m7G cap; /5Phos/mAmGmAmGmAmArUrArArArArA (SEQ ID NO: 16) ({P}-mAmGmAmGmAmArUrArArArArA; m7G cap on the 5'-phosphate)", "values": [{"measurement": "Kd", "setting": "eIF4E [1]", "result": "2450 ± 140", "unit": "nM"}, {"measurement": "Susceptibility / resistance to hDcp2 decapping", "setting": "[2]; listed as 2′OMe at first 6 bases", "result": "increased decapping resistance to a similar level as LNA modification"}, {"measurement": "Susceptibility / resistance to hDcp2 decapping", "setting": "[2]; listed as 2′OMe within the first 6 bases", "result": "increased decapping resistance"}, {"measurement": "Protein expression (Firefly luciferase luminescence normalized to Renilla, then to m7G-rG), fold increase", "setting": "HeLa cells [3]", "result": 6.9, "unit": "fold"}]}, {"molecule": "construct 61: m1ψ NLuc circRNA with 20-nt insert, annealed non-covalently to m7G-capped complementary oligo (SEQ ID NO: 116, 177) (chain 1 AAAAACUUACCAAGCGAAGAACAGAAAAA; chain 2 GUCUGUUCUUCGCUUGGUAAG; m1ψ; circRNA; m7G-capped complementary oligo annealed; modified_base 1 OTHER; 5'-phosphate modified nucleotide; modified_base 29 OTHER; 3'-phosphate modified nucleotide; 5'-phosphate modified 7-methylguanosine)", "values": [{"measurement": "Enhancement of NLuc protein production by non-covalent complementary capped oligo", "setting": "HeLa cells [4]", "result": "up to 5 fold"}]}, {"molecule": "construct S21: hEPO mRNA with m7G-rG cap, in LNP (SEQ ID NO: 138) (GGAGAAUAAAAA; RNA, 5' {m7G}, backbone not given here; capped 5' oligo ligated to hEPO mRNA, formulated in LNP) [reference compound]", "values": [{"measurement": "Effect on reticulocyte counts, result in words", "setting": "reticulocytes; day 6, vs poly(C)-LNP", "result": "non-significant"}, {"measurement": "Reticulocytes, % of total red blood cells", "setting": "reticulocytes; day 6 post-administration", "result": "4±0.3", "unit": "%"}, {"measurement": "Peak plasma hEPO expression", "setting": "[5]", "result": "733±123", "unit": "mlU/mL"}]}, {"molecule": "construct 22: LNAm7G cap; /5Phos/+ArGrArGrArArUrArArArArA (SEQ ID NO: 23) ({P}-lArGrArGrArArUrArArArArA; LNA-modified m7G cap on the 5'-phosphate)", "values": [{"measurement": "Kd", "setting": "eIF4E [1]", "result": "1420 ± 126", "unit": "nM"}, {"measurement": "Capped transcripts remaining after hDcp2 decapping", "setting": "[2]; after 60 minutes", "result": 71, "unit": "%~73"}, {"measurement": "Protein expression (Firefly luciferase luminescence normalized to Renilla, then to m7G-rG), fold increase", "setting": "HeLa cells [3]", "result": 8.6, "unit": "fold"}]}, {"molecule": "B1", "values": [{"measurement": "Kd", "setting": "eIF4E [6]", "result": 1420, "unit": "nM"}]}, {"molecule": "B2", "values": [{"measurement": "Kd", "setting": "eIF4E [6]", "result": 2450, "unit": "nM"}]}, {"molecule": "B3", "values": [{"measurement": "Kd", "setting": "eIF4E [6]", "result": 1570, "unit": "nM"}]}]}
